{"source": "paper PMC8122087", "about": "(Cell, 2021)", "key": {"[1]": {"molecular_target": "T1, psychLight2 (PSYLI2 cells) (Homo sapiens, UniProt P28223, DEL264-312/E264Q/I181A/I315S/INS316[…]/S314L)", "T1 sequence (P28223 1-471 with tags or gaps with the stated changes)": "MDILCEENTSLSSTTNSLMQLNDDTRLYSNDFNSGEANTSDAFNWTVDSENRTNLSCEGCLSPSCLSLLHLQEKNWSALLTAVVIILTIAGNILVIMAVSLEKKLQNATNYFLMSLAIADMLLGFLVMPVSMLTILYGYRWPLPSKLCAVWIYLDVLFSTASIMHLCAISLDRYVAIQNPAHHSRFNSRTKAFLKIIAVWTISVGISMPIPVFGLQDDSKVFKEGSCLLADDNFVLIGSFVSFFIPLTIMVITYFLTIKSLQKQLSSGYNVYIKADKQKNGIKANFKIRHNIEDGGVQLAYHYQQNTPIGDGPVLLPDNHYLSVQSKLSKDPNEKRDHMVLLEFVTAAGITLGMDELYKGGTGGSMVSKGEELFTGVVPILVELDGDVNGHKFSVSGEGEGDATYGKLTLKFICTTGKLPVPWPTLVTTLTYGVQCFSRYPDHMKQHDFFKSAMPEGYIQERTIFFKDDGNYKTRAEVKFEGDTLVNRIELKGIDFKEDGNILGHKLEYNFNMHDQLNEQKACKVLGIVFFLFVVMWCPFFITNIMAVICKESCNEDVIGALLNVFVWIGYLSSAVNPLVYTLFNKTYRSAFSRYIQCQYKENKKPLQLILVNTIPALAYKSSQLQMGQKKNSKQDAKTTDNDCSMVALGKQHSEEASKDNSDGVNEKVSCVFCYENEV", "format": "cell-based"}, "head-twitch response": {"test_system": "head-twitch response", "test": "Head-twitch response", "format": "in vivo, mouse"}, "[2]": {"molecular_target": "psychLight2 (HEK293T cell line stably expressing psychLight2, PSYLI2) (Homo sapiens, UniProt P28223, DEL264-312/E264Q/I181A/I315S/INS316[…]/S314L)", "test": "PSYLI2 high-content imaging assay, agonist mode", "format": "cell-based"}, "psychLight2 [3]": {"test_system": "psychLight2", "format": "cell-based, mouse"}, "[4]": {"molecular_target": "psychLight1 (human 5-HT2AR-based fluorescent sensor) (Homo sapiens, UniProt P28223, DEL264-312/E264Q/I181A/I315S/INS316[…]/S314L)", "sequence (P28223 1-471 with tags or gaps with the stated changes)": "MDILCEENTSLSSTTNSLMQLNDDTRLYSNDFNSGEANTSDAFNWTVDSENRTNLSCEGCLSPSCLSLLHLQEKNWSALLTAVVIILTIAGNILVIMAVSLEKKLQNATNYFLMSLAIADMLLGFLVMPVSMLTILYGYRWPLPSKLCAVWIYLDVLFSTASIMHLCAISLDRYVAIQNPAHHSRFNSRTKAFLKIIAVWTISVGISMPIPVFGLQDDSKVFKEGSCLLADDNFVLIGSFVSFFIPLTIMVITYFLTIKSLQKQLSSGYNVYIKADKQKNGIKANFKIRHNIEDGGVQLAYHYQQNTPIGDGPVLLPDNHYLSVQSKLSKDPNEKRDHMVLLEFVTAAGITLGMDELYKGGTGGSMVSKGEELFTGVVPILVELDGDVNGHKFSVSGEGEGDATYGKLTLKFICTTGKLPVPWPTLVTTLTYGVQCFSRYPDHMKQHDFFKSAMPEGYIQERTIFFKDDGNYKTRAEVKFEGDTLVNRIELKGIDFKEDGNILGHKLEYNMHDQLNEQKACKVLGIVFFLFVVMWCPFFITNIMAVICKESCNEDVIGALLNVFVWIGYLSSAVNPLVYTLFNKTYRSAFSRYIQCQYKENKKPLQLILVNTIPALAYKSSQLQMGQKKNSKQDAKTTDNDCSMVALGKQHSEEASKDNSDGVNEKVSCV", "format": "cell-based"}, "psychLight2 [5]": {"molecular_target": "psychLight2 (Homo sapiens, UniProt P28223, DEL264-312/E264Q/I181A/I315S/INS316[…]/S314L)", "conditions": "mouse"}, "[6]": {"test_system": "cultured rat embryonic cortical neurons", "test": "Dendritogenesis in cultured rat embryonic cortical neurons", "format": "cell-based", "conditions": "Sholl analysis, Nmax"}, "C57BL/6J mice": {"test_system": "C57BL/6J mice", "test": "Forced swim test", "format": "in vivo, mouse"}, "locomotion": {"test_system": "locomotion", "test": "Locomotion assay", "format": "in vivo, mouse", "conditions": "C57BL/6J mice, i.p., n = 4 mice"}, "[7]": {"test_system": "VMAT2 heterozygous (VMAT2-HET) and WT mice", "test": "Sucrose preference test", "format": "in vivo, mouse", "conditions": "15 mg/kg i.p., single administration"}, "[8]": {"molecular_target": "T1, psychLight2 (PSYLI2 cells)", "format": "cell-based", "remark": "listed apart in the source"}, "[9]": {"test_system": "endogenous 5-HT release (psychLight2 response)", "set-up": "species or system mouse", "conditions": "electrical stimulation, incubation with 50 μM"}, "[10]": {"conditions": "C57BL/6J mice, i.p., dose-response, n = 4 mice"}, "[11]": {"conditions": "10 μM compound treatment (Fig. 4C)"}}, "note": "Entries after “also recorded” stand apart in the source; their conditions may differ. Counter-ions that a name gives are not always drawn. Like-named read-outs stand apart in the source and are kept apart here."}
{"smiles": "CN(C)CCc1c[nH]c2ccc(Br)cc12", "note": "[5-Br-DMT, 5-bromo-N,N-dimethyltryptamine]", "values": [{"measurement": "ligand score", "setting": "[1]", "value": "negative"}, {"measurement": "head-twitch response", "setting": "head-twitch response; [10]", "value": "failed to induce HTRs at any dose"}]}
{"smiles": "CN(C)CCc1c[nH]c2ccc(Cl)cc12", "note": "[5-Cl-DMT, 5-chloro-N,N-dimethyltryptamine]", "values": [{"measurement": "ligand score", "setting": "[1]", "value": "positive"}, {"measurement": "head-twitch response", "setting": "head-twitch response; [10]", "value": "produced robust HTRs"}]}
{"smiles": "CN(C)CCc1c[nH]c2ccc(F)cc12", "note": "[5-F-DMT, 5-flouo-N,N-dimethyltryptamine]", "values": [{"measurement": "ligand score", "setting": "[1]", "value": "positive"}, {"measurement": "head-twitch response", "setting": "head-twitch response; mouse, in vivo, ip", "value": "produced robust HTRs"}]}
{"smiles": "NCCc1c[nH]c2ccc(O)cc12", "note": "[5-HT, serotonin]", "values": [{"measurement": "PSYLI2 fluorescence ΔF/F", "setting": "[2]", "value": "46.3 ± 1.4", "unit": "%"}, {"measurement": "PSYLI2 response", "setting": "[2]", "value": "44.8 ± 0.8", "unit": "%"}, {"measurement": "psychLight2 fluorescence response (ΔF/F)", "setting": "[2]", "value": "38.2 ± 2.4", "unit": "%"}, {"measurement": "ΔpL2/tdT", "setting": "psychLight2 [3]", "value": "111.1 ± 1.8", "unit": "%"}, {"measurement": "psychLight1 fluorescence response (ΔF/F)", "setting": "[4]", "value": "77.3 ± 2.4", "unit": "%"}]}
{"smiles": "COc1ccc2[nH]cc(CCN(C)C)c2c1", "note": "[5-MeO-DMT, 5-methoxy-N,N-dimethyltryptamine]", "values": [{"measurement": "psychLight2 fluorescence in vivo", "setting": "psychLight2 [5]", "value": "sharp increase in fluorescence"}, {"measurement": "head-twitch response during fiber photometry", "setting": "head-twitch response; 50 mg/kg, i.p., within 1 min of administration, n = 3 animals", "value": "concomitant increase in HTR"}, {"measurement": "psychLight2 fluorescence response (ΔF/F)", "setting": "[2]", "value": "24.1 ± 4.6", "unit": "%"}, {"measurement": "Emax", "setting": "[4]", "value": 48.4, "unit": "%"}, {"measurement": "psychLight1 fluorescence response (ΔF/F)", "setting": "[4]", "value": "48.4 ± 3.1", "unit": "%"}]}
{"smiles": "COc1ccc2c(CCN(C)C)c[nH]c2c1", "note": "[6-MeO-DMT, 6-methoxy-N,N-dimethyltryptamine]", "values": [{"measurement": "psychLight2 fluorescence response (ΔF/F)", "setting": "[2]; 10 μM, high content imager (Suppl. Fig. 3C)", "value": "−3.0 ± 2.7", "unit": "%"}, {"measurement": "competition with / block of 5-HT-induced activation of psychLight", "setting": "[4]", "value": "can compete off 5-HT resulting in a reduction in psychLight fluorescence; also recorded: capable of binding to the receptor despite lacking efficacy"}, {"measurement": "psychLight1 fluorescence response (ΔF/F)", "setting": "[4]; 10 μM, confocal microscope, n = 3", "value": "−1.1 ± 4.6", "unit": "%"}]}
{"smiles": "COc1ccc2c(ccn2C[C@@H](C)N(C)C)c1", "note": "[AAZ-A-154]", "values": [{"measurement": "dendritic arbor complexity", "setting": "[6]", "value": "increases dendritic arbor complexity to a comparable extent as the fast-acting antidepressant ketamine"}, {"measurement": "head-twitch response", "setting": "head-twitch response; [10]", "value": "failed to produce any head-twitches, even up to doses as high as 100 mg/kg"}, {"measurement": "immobility in the forced swim test", "setting": "C57BL/6J mice; 20 mg/kg i.p., single administration, n = 12", "value": "decreased immobility"}, {"measurement": "onset and duration of antidepressant-like effects in FST", "setting": "C57BL/6J mice; mouse, in vivo", "value": "both rapid (30 min) and long-lasting (1 week) antidepressant-like effects"}, {"measurement": "locomotion", "setting": "locomotion", "value": "only decreases locomotion at a very high dose (100 mg/kg)"}, {"measurement": "sucrose preference in WT mice", "setting": "[7]", "value": "did not modify sucrose preference in the WT animals"}, {"measurement": "sucrose preference in VMAT2-HET mice", "setting": "[7]; 1% sucrose", "value": "exhibited a sucrose preference that was indistinguishable from WT controls"}, {"measurement": "persistence of anti-anhedonic effect", "setting": "[7]; VMAT2-HET mice", "value": "at least 12 days"}]}
{"smiles": "CN(C)CCc1c[nH]c2ccc(O)cc12", "note": "[BUFO, N,N-dimethylserotonin]", "values": [{"measurement": "PSYLI2 fluorescence ΔF/F", "setting": "[2]; [11]", "value": "22.3 ± 2.8", "unit": "%"}]}
{"smiles": "CN(C)CCc1c[nH]c2ccccc12", "note": "[DMT, N,N-dimethyltrytamine]", "values": [{"measurement": "Emax", "setting": "[4]", "value": 12.4, "unit": "%"}, {"measurement": "EC50", "setting": "[4]; read-out: half maximal effective concentration (EC50)", "value": 627, "unit": "nM"}]}
{"smiles": "CNCCc1c[nH]c2ccc(O)cc12", "note": "[N-5-HT, N-methylserotonin]", "values": [{"measurement": "PSYLI2 fluorescence ΔF/F", "setting": "[2]; [11]", "value": "24.6 ± 1.7", "unit": "%"}]}
{"smiles": "CP(C)C.F[P-](F)(F)(F)(F)F.F[P-](F)(F)(F)(F)F.NCCc1c[nH]c2ccc(O)cc12.[Ru+2].c1ccc(-c2ccccn2)nc1.c1ccc(-c2ccccn2)nc1", "note": "[RuBi–5-HT]", "values": [{"measurement": "Tauoff", "setting": "psychLight2 [3]", "value": "5.4 ± 0.9", "unit": "ms"}, {"measurement": "peak ΔpL2/tdT normalized to baseline", "setting": "psychLight2 [3]", "value": "111.2 ± 0.7", "unit": "%"}]}
{"smiles": "CN1CCc2cccc3c2[C@H]1Cc1ccc(O)c(O)c1-3", "note": "[apomorphine, R-(−)-apomorphine hydrochloride hemihydrate]", "values": [{"measurement": "Schild regression analysis (pA2)", "setting": "[8]", "value": "potent psychLight competitive antagonists"}]}
{"smiles": "CN(C)CCC[C@@]1(c2ccc(F)cc2)OCc2cc(C#N)ccc21", "note": "[escitalopram]", "values": [{"measurement": "amplitude of the psychLight2 response ΔF/F", "setting": "[9]", "value": "18.4 ± 4.3", "unit": "%"}]}
{"smiles": "O=C(c1ccc(F)cc1)C1CCN(CCn2c(=O)[nH]c3ccccc3c2=O)CC1", "note": "[ketanserin]", "values": [{"measurement": "psychLight2 fluorescence in vivo", "setting": "psychLight2 [5]", "value": "decreased"}, {"measurement": "PSYLI2 response", "setting": "[2]", "value": "−12.7 ± 0.5", "unit": "%"}, {"measurement": "psychLight2 fluorescence response (ΔF/F)", "setting": "[2]", "value": "−3.5 ± 1.6", "unit": "%"}, {"measurement": "competition with / block of 5-HT-induced activation of psychLight", "setting": "[4]", "value": "able to block 5-HT-induced activation of psychLight"}, {"measurement": "effect on psychLight1 fluorescence", "setting": "[4]", "value": "either had minimal effect on psychLight1 fluorescence or slightly quenched the sensor"}, {"measurement": "psychLight1 fluorescence response (ΔF/F)", "setting": "[4]", "value": "−1.7 ± 0.3", "unit": "%"}]}
{"smiles": "c1ccc(C2(N3CCCCC3)CCCCC2)cc1", "note": "[phencyclidine]", "values": [{"measurement": "ligand score", "setting": "[1]", "value": "~0"}]}
{"smiles": "COC(=O)[C@@H]1C[C@H](OC(C)=O)C(=O)[C@H]2[C@@]1(C)CC[C@H]1C(=O)O[C@H](c3ccoc3)C[C@]21C", "note": "[salvinorin A]", "values": [{"measurement": "ligand score", "setting": "[1]", "value": "~0"}]}
{"smiles": "NCCc1c[nH]c2ccccc12", "note": "[tryptamine]", "values": [{"measurement": "PSYLI2 fluorescence ΔF/F", "setting": "[2]", "value": "produces a robust response"}]}
